The results in this text go back to patent US20100249089A1, “ABCG2 INHIBITOR” (KABUSHIKI KAISHA YAKULT HONSHA, priority 2007, published 2010).

Series [1] has as its system BCRP-gene-transfected human colon cancer HCT116 cells (HCT116/BCRP cells). Put plainly: Effect of overcoming anticancer agent resistance in vivo (oral administration), HCT116/BCRP xenograft with CPT-11. Set-up: species or system BALB/c male nude mice. Here is the method: To an inguinal region of each of 6-week-old BALB/c male nude mice (5 mice/group), BCRP-gene-transfected human colon cancer HCT116 cells (HCT116/BCRP cells) (obtained from Dr. Yoshikazu Sugimoto, The Cancer Chemotherapy Center of Japanese Foundation for Cancer Research) were subcutaneously transplanted (2×10^6 cells/0.1 mL/mouse). When the tumor volume as estimated from (1/2)ab^2 (a: longer tumor diameter, b: shorter tumor diameter) reached about 100 to 150 mm^3, each of the compounds of the present invention shown in Tables 1 to 4 and a positive control compound (i.e., Compound 14 ((Z)-2-(3,4-dimethoxy-phenyl)-3-{5-[4-(2-hydroxy-ethyl)-piperazin-1-yl]-thiophen-2-yl}-acrylonitrile hydrochloride)), disclosed in Patent Document 3 (WO 2006/106778)) (hereinafter referred to as Earlier Application Compound 14) was orally administered once a day for nine days (9 times in total). […] The dose of each of the compounds of the present invention was adjusted to 0.20 or 0.40 mmol/kg/day, and that of the positive control compound was adjusted to 0.23 or 0.46 mmol/kg/day. For administration, Compound 3 or 5 of the present invention was dissolved in 5% glucose solution, and Compound 4 or 6 was dissolved in Britton-Robinson buffer. […] A solvent was solely administered to a control group. On day 21 from start of administration, a tumor was extirpated from each mouse and weighed, and the tumor growth inhibition ratio IR (%) was derived from the following equation:
Tumor growth inhibition ratio IR (%)=(1−average tumor weight of each administration group/average tumor weight of control group)×100.

Series [2] in a line: Solubility (HPLC quantification of supernatant). The series is classed as physicochemical. To be noted: thermodynamic from solid, room temperature, stirred about 30 minutes, 100 mg/mL charged. Here is the method: Each (10 mg) of the compounds of the present invention and Earlier Application Compound 14 shown in Table 5 was weighed and placed in a sealable container, and water or 5% glucose solution was added to the container in such an amount as to adjust the final concentration to 100 mg/mL. The contents of the container were stirred at room temperature for about 30 minutes, followed by centrifugation. The compound concentration of the supernatant recovered through centrifugation was quantified through high-performance liquid chromatography.

Series [3] is described as follows: Solubility (HPLC quantification of supernatant). The series is classed as physicochemical. To be noted: saline or isotonic, thermodynamic from solid; physiological saline, room temperature.
The mark [4] stands for this setting: compound 0.20 mmol/kg/day oral once a day for nine days + CPT-11 45 mg/kg/day i.v. day 1, 5, 9, day 21, vs control group.
[5] abbreviates: compound 0.20 mmol/kg/day oral once a day for nine days + CPT-11 45 mg/kg/day i.v. day 1, 5, 9, tumor weighed day 21.
Where [6] appears, read: compound 0.40 mmol/kg/day oral once a day for nine days + CPT-11 45 mg/kg/day i.v. day 1, 5, 9, day 21, vs control group.
Where [7] appears, read: compound 0.40 mmol/kg/day oral once a day for nine days + CPT-11 45 mg/kg/day i.v. day 1, 5, 9, tumor weighed day 21.
The mark [8] stands for this setting: saline or isotonic, 5% glucose solution, read-out: Solubility in 5% glucose.
Setting [9] is: water, read-out: Solubility in water.
Where [10] appears, read: positive control 100 mg/kg/day (0.23 mmol/kg/day) oral for nine days + CPT-11 45 mg/kg/day i.v. day 1, 5, 9, day 21.
Where [11] appears, read: positive control 200 mg/kg/day (0.46 mmol/kg/day) oral for nine days + CPT-11 45 mg/kg/day i.v. day 1, 5, 9, day 21.

Where two headings read alike, the source gives them in different places.

For the compound `COc1ccc(/C(C#N)=C/c2ccc(N3CCC(OC(=O)CN4CCCCC4)CC3)s2)cc1OC.Cl` [Compound 3, piperidin-1-yl-acetic acid 1-[5-[(Z)-2-cyano-2-(3,4-dimethoxy-phenyl)-vinyl]-thiophen-2-yl]-piperidin-4-yl ester hydrochloride], the “Tumor growth inhibition ratio IR (%)” value in series [1] (setting [4]) amounted to 51.9%; in series [1] (setting [6]), 54.7%. For the same compound, the “Tumor weight (g) Mean ± S.D.” value was found to be 0.73 ± 0.07 g in series [1] (setting [5]) and 0.65 ± 0.11 g in series [1] (setting [7]).
The matching figures for `COc1ccc(/C(C#N)=C/c2ccc(N3CCC(OC(=O)CN4CCC(O)CC4)CC3)s2)cc1OC.Cl` [Compound 4, (4-hydroxy-piperidin-1-yl)-acetic acid 1-[5-[(Z)-2-cyano-2-(3,4-dimethoxy-phenyl)-vinyl]-thiophen-2-yl]-piperidin-4-yl ester hydrochloride]: 31.8%, 46.4%, 0.89 ± 0.09 g and 0.70 ± 0.11 g.
A word on the solubility: it is how much of the substance goes into solution per volume. In the case of `COc1ccc(/C(C#N)=C/c2ccc(N3CCC(OC(=O)CN4CCCCC4)CC3)s2)cc1OC.CS(=O)(=O)O` [Compound 5, piperidin-1-yl-acetic acid 1-[5-[(Z)-2-cyano-2-(3,4-dimethoxy-phenyl)-vinyl]-thiophen-2-yl]-piperidin-4-yl ester methanesulfonate], the “Tumor growth inhibition ratio IR (%)” value in series [1] (setting [4]) is 50.9%; in series [1] (setting [6]), 55.9%. In addition, the figures for the “Tumor weight (g) Mean ± S.D.” value in series [1] (setting [5]) and in series [1] (setting [7]) were 0.73 ± 0.12 g and 0.65 ± 0.16 g, respectively. Further, the solubility was ≥ 100 mg/mL in series [2] (setting [8]), ≥ 100 mg/mL in series [2] (setting [9]) and 100 mg/mL in series [3].
Consider `COc1ccc(/C(C#N)=C/c2ccc(N3CCC(OC(=O)CN4CCC(O)CC4)CC3)s2)cc1OC.CS(=O)(=O)O` [Compound 6, (4-hydroxy-piperidin-1-yl)-acetic acid 1-[5-[(Z)-2-cyano-2-(3,4-dimethoxy-phenyl)-vinyl]-thiophen-2-yl]-piperidin-4-yl ester methanesulfonate], for which the entries for the “Tumor growth inhibition ratio IR (%)” value in series [1] (setting [4]) and in series [1] (setting [6]) were 36.9% and 41.8%, respectively. The “Tumor weight (g) Mean ± S.D.” value was found to be 0.82 ± 0.04 g in series [1] (setting [5]) and 0.76 ± 0.09 g in series [1] (setting [7]).
Consider `COc1ccc(/C(C#N)=C/c2ccc(N3CCC(OC(=O)CN4CCC4)CC3)s2)cc1OC.CS(=O)(=O)O` [Compound 8, azetidin-1-yl-acetic acid 1-[5-[(Z)-2-cyano-2-(3,4-dimethoxy-phenyl)-vinyl]-thiophen-2-yl]-piperidin-4-yl ester methanesulfonate], for which the solubility in series [2] (setting [8]) and in series [2] (setting [9]) was ≥ 100 mg/mL throughout.
In the case of `COc1ccc(/C(C#N)=C/c2ccc(N3CCC(OC(=O)CN4CCCC4)CC3)s2)cc1OC.CS(=O)(=O)O` [Compound 10, pyrrolidin-1-yl-acetic acid 1-[5-[(Z)-2-cyano-2-(3,4-dimethoxy-phenyl)-vinyl]-thiophen-2-yl]-piperidin-4-yl ester methanesulfonate], the solubility in series [2] (setting [8]) and in series [2] (setting [9]) was ≥ 100 mg/mL throughout.
Regarding `COc1ccc(/C(C#N)=C/c2ccc(N3CCC(OC(=O)CN4CCCCC4C)CC3)s2)cc1OC.CS(=O)(=O)O` (stereo not drawn) [Compound 12, (2-methyl-piperidin-1-yl)-acetic acid 1-[5-[(Z)-2-cyano-2-(3,4-dimethoxy-phenyl)-vinyl]-thiophen-2-yl]-piperidin-4-yl ester methanesulfonate], the results for the solubility in series [2] (setting [8]), in series [2] (setting [9]) and in series [3] were ≥ 100 mg/mL, ≥ 100 mg/mL and 100 mg/mL, respectively.
Regarding `COc1ccc(/C(C#N)=C/c2ccc(N3CCC(OC(=O)CN4CCCC(CO)C4)CC3)s2)cc1OC.CS(=O)(=O)O` (stereo not drawn) [Compound 14, (3-hydroxymethyl-piperidin-1-yl)-acetic acid 1-[5-[(Z)-2-cyano-2-(3,4-dimethoxy-phenyl)-vinyl]-thiophen-2-yl]-piperidin-4-yl ester methanesulfonate], the solubility in series [2] (setting [8]) is ≥ 100 mg/mL; in series [2] (setting [9]), ≥ 100 mg/mL; in series [3], 100 mg/mL.
With `COc1ccc(/C(C#N)=C/c2ccc(N3CCC(OC(=O)CN4CCCCCC4)CC3)s2)cc1OC.CS(=O)(=O)O` [Compound 16, azepan-1-yl-acetic acid 1-[5-[(Z)-2-cyano-2-(3,4-dimethoxy-phenyl)-vinyl]-thiophen-2-yl]-piperidin-4-yl ester methanesulfonate], the solubility in series [2] (setting [8]) and in series [2] (setting [9]) was ≥ 100 mg/mL in each case.
On to `COc1ccc(/C(C#N)=C/c2ccc(N3CCC(OC(=O)CN4CCCCCCC4)CC3)s2)cc1OC.CS(=O)(=O)O` [Compound 18, azocan-1-yl-acetic acid 1-[5-[(Z)-2-cyano-2-(3,4-dimethoxy-phenyl)-vinyl]-thiophen-2-yl]-piperidin-4-yl ester methanesulfonate], for which the solubility in series [2] (setting [8]) and in series [2] (setting [9]) was ≥ 100 mg/mL in each case.
On to `COc1ccc(/C(C#N)=C/c2ccc(N3CCC(OC(=O)CN4CCN(C)CC4)CC3)s2)cc1OC.CS(=O)(=O)O` [Compound 20, (4-methyl-piperazin-1-yl)-acetic acid 1-[5-[(Z)-2-cyano-2-(3,4-dimethoxy-phenyl)-vinyl]-thiophen-2-yl]-piperidin-4-yl ester methanesulfonate], for which the solubility was ≥ 100 mg/mL in series [2] (setting [8]), ≥ 100 mg/mL in series [2] (setting [9]) and 100 mg/mL in series [3].
Consider `COc1ccc(/C(C#N)=C/c2ccc(N3CCC(OC(=O)CN4CCOCC4)CC3)s2)cc1OC.CS(=O)(=O)O` [Compound 22, morpholin-4-yl-acetic acid 1-[5-[(Z)-2-cyano-2-(3,4-dimethoxy-phenyl)-vinyl]-thiophen-2-yl]-piperidin-4-yl ester methanesulfonate], for which the solubility in series [2] (setting [8]) and in series [2] (setting [9]) was ≥ 100 mg/mL throughout.
Turning to `COc1ccc(/C(C#N)=C/c2ccc(N3CCN(CCO)CC3)s2)cc1OC.Cl` [EAC 14, (Z)-2-(3,4-dimethoxy-phenyl)-3-{5-[4-(2-hydroxy-ethyl)-piperazin-1-yl]-thiophen-2-yl}-acrylonitrile hydrochloride, reference compound], the “Tumor growth inhibition ratio IR (%)” value is on record as 23.9% in series [1] (setting [10]) and 35.6% in series [1] (setting [11]). Moreover, the results for the “Tumor weight (g) Mean ± S.D.” value in series [1] (setting [10]) and in series [1] (setting [11]) were 1.04 ± 0.17 g and 0.88 ± 0.14 g, respectively. The solubility in series [2] (setting [8]) is 6.6 mg/mL; in series [2] (setting [9]) it was 6.6 mg/mL; in series [3] it was < 1 mg/mL.
